Measured values from publication PMC3549917, “Characterization of two antimicrobial peptides produced by a halotolerant Bacillus subtilis strain SK.DU.4 isolated from a rhizosphere soil sample” (AMB Express, 2013).
Where no end group is shown, it is not given here.

Experiments:
Assay in all cases: Well diffusion assay, inhibition spectrum
Type in all cases: cell-based
[1] = test system: S. mutans MTCC497; details: lipopeptide combined with bacteriocin-like peptide
Experimental: (§1) The bacteriocin activity was determined by well diffusion assay. The strain was grown for 24 h in 200 ml nutrient broth (NB, Himedia) using 500 ml flask and subsequently cells were removed by centrifugation (8000 rpm for 20 min, 4°C). The supernatant obtained was filtered by using 0.22 μm filter (Millipore), diluted by two fold and used to test the activity as mentioned earlier (Singh et al. [2012]). The antimicrobial peptide production was also tested by growing the strain in minimal medium. To examine the antimicrobial activity, S. aureus cells were processed for scanning electron micrograph (SEM) as described by earlier (Singh et al. [2012]). Growth curve was prepared to examine the bacteriocin production along with the growth of strain SK.DU4.
(§2) Although the antimicrobial peptides were produced in NB for large scale preparation, the influence of different carbon and nitrogen sources on peptides production was tested using minimal medium. […] The optimum pH for the production of antimicrobial peptides was 7.2 and there was no significant change in pH was observed during the production of antimicrobial peptides. The bacteriocin-like peptide was extracted from CFB by hydrophobic interaction chromatography using Diaion HP-20 beads and purified by a combination of chromatography techniques as described previously (Singh et al. [2012]). Subsequently, the purified peptide was tested for antimicrobial activity against an array of Gram-positive and Gram-negative bacteria, yeasts and fungi strains using well diffusion assays.

[2] = test system: L. monocytogenes MTCC839; details: 100 μl of the lowest dilution inhibiting test strain, similar results in three individual experiments
Experimental: as §1, §2

[3] = test system: M. luteus MTCC106; details: 100 μl of the lowest dilution inhibiting test strain, similar results in three individual experiments
Experimental: as §1, §2

[4] = test system: B. subtilis MTCC121; details: Polymyxin B at 300 U
Experimental: as §1, §2

**Q.** What does the source list for “DYNQPNS (also: lariat or depsi (positions not given here)) [Lipopeptide, cyclic iturin-like lipopeptide (m/z 1056 Da), β-hydroxy fatty acid linked to Ser of heptapeptide, from strain SK.DU.4]”?
**A.** growth inhibition in combination with bacteriocin-like peptide [1]: inhibited the growth; inhibition zone [2]: 11 mm; inhibition zone [3]: 11 mm; Inhibition activity [4]: inhibited growth
